Laboratory results taken from patent US4605744A, “Imidazole derivatives” (Hoffmann-La Roche Inc., priority 1985, dated 1986).
Where a name gives a salt, the structure may show the parent alone. Read-outs that look alike come from different tables or passages of the source.

Columns and labels:
E. coli 257 = assay: In vivo antibacterial activity (PD50); conditions: Escherichia coli, 257, sc
E. coli 4 = assay: In vivo antibacterial activity (PD50); conditions: Escherichia coli, sc, Table 9
E. aerogenes 83 = assay: In vivo antibacterial activity (PD50); conditions: Klebsiella aerogenes, sc, Table 9
S. marcescens S5 = assay: In vivo antibacterial activity (PD50); conditions: Serratia marcescens, sc, Table 9
P. aeruginosa POW151 = assay: In vivo antibacterial activity (PD50); conditions: Pseudomonas aeruginosa, sc, Table 9
S. aureus Giorgio = assay: In vivo antibacterial activity (PD50); conditions: Staphylococcus aureus; sc; Table 9
S. pyogenes 503-782 = assay: In vivo antibacterial activity (PD50); conditions: Streptococcus pyogenes, 503782; sc; Table 9
S. pneumoniae SC = assay: In vivo antibacterial activity (PD50); conditions: Streptococcus pneumoniae
S. pneumoniae 6301 = assay: In vivo antibacterial activity (PD50); conditions: Streptococcus pneumoniae, sc, Table 9
E. cloacae 4633 = assay: In vivo activity alone and in combination (PD50, FIC); conditions: Enterobacter cloacae, 4633; sc; alone; read-out: PD50 (alone)
E. coli 736 = assay: as above; conditions: Escherichia coli, sc, alone
E. coli BC5524 = assay: as above; conditions: Escherichia coli, BC5524; sc; alone; read-out: PD50 (alone)
K. pneumoniae 39 = assay: as above; conditions: Klebsiella pneumoniae, 39, sc, alone
K. pneumoniae R2296 = assay: as above; conditions: Klebsiella pneumoniae, sc, alone
P. aeruginosa 6719 = assay: In vivo antibacterial activity (PD50); conditions: Pseudomonas aeruginosa, 6719, sc
P. aeruginosa 8710 = assay: In vivo antibacterial activity (PD50); conditions: Pseudomonas aeruginosa, 8710, sc, 2 treatments
K. pneumoniae HE7 = assay: In vivo antibacterial activity (PD50); conditions: Klebsiella pneumoniae, HE7, sc, 2 treatments
E. cloacae 6951 = assay: In vivo antibacterial activity (PD50); conditions: Enterobacter cloacae, 6951, sc, 2 treatments
S. marcescens S3 = assay: In vivo antibacterial activity (PD50); conditions: Serratia marcescens, S3, sc, read-out: PD50
E. coli 387-1 = assay: In vivo antibacterial activity (PD50); conditions: Escherichia coli, 3871; sc; challenge 127 LD50s; 1 treatment; Table 11
K. pneumoniae 8357 = assay: animal or person; assay type: in vivo; conditions: Klebsiella pneumoniae, 8357, sc, read-out: PD50
E. cloacae 214 = assay: In vivo antibacterial activity (PD50); conditions: Enterobacter cloacae, sc, challenge 3.8 LD50s, 2 treatments, Table 11
Description: (§1) In Tables 9-14, the results of the in vivo activity against certain microorganisms of compounds I, M and N as given. […] The results in these Tables and the PD50 's were determined by the procedure set forth on page 160 in Beskid et al., Antimicrobial Agents and Chemotherapy, Vol. 20, No. 2 pp. 159-167 (Aug. 1981) for "in vivo studies".

S. schottmuelleri = assay: In vivo antibacterial activity (PD50); conditions: sc; challenge 163 LD50s; 1 treatment; Table 11
Description: as §1

C. freundii 8ASM = assay: In vivo antibacterial activity (PD50); conditions: Citrobacter freundii, sc, challenge 1000 LD50s, 1 treatment, Table 11
P. vulgaris 100 = assay: In vivo antibacterial activity (PD50); conditions: Proteus vulgaris; sc; challenge 100 LD50s; 1 treatment; Table 11
P. mirabilis 190 = assay: In vivo antibacterial activity (PD50); conditions: Proteus mirabilis, sc, challenge 10^4 LD50s, 1 treatment, Table 11
[1] = challenge >10^4 LD50s, 1 treatment, Table 11
[2] = challenge 2290 LD50s, 2 treatments, Table 11
[3] = challenge >10^4 LD50s, Table 11, read-out: PD50
[4] = challenge >10^4 LD50s, 1 treatment, Table 10
[5] = challenge 10 LD50s, Table 10, read-out: PD50
[6] = challenge 562 LD50s, Table 10, read-out: PD50

Compound	ED50 (E. coli 257; Table 9)	ED50 (E. coli 4)	ED50 (E. aerogenes 83)	ED50 (S. marcescens S5)	ED50 (P. aeruginosa POW151)	ED50 (S. aureus Giorgio)	ED50 (S. pyogenes 503-782)	ED50 (S. pneumoniae 6301)	ED50 (E. cloacae 4633)	ED50 (E. coli BC5524)	ED50 (K. pneumoniae 39)	ED50 (K. pneumoniae R2296)	ED50 (E. coli 257; [1])	ED50 (P. aeruginosa 6719; [2])	ED50 (P. aeruginosa 8710; [3])	ED50 (K. pneumoniae HE7; challenge 1000 LD50s, Table 11)	ED50 (E. cloacae 6951; challenge 3162 LD50s, Table 11)	ED50 (S. marcescens S3)	ED50 (E. coli 387-1)	ED50 (K. pneumoniae 8357)	also measured
CC1(C)S[C@@H]2[C@H](N=CN3CCC(CCCn4ccnc4N)CC3)C(=O)N2[C@H]1C(=O)O [I, [2S-(2alpha,5alpha,6beta)]-6-[[[4-[3-(2-amino-1H-imidazol-1-yl)propyl]piperidinyl]methylene]amino]-3,3-dimethyl-7-oxo-4-thia-1-azabicyclo[3.2.0]hpetane-2-carboxylic acid hydrochloride]	< 0.2 mg/kg	1.9 mg/kg	> 250 mg/kg	> 250 mg/kg	111 mg/kg	> 250 mg/kg	59 mg/kg	> 250 mg/kg	6.4 mg/kg	> 250 mg/kg	115 mg/kg	> 250 mg/kg	–	–	–	–	–	–	–	–	ED50 (S. pneumoniae SC; read-out: PD50): 3.6 mg/kg; ED50 (E. coli 736): 0.05 mg/kg
CC1(C)S[C@@H]2[C@H](N=CN3CCC(CCC4=NCCN4)CC3)C(=O)N2[C@H]1C(=O)O [N, [2S-(2alpha,5alpha,6beta)]-6-[[[4-[4,5-dihydro-1H-imidazol-2-yl)ethyl]-1-piperidinyl]methylene]amino]-3,3-dimethyl-7-oxo-4-thia-1-azabicyclo[3.2.0]heptane-2-carboxylic acid hydrochloride]	–	–	–	–	–	–	–	–	12 mg/kg	114 mg/kg	18 mg/kg	> 250 mg/kg	< 1 mg/kg	22 mg/kg	50 mg/kg	> 250 mg/kg	< 2 mg/kg	< 0.5 mg/kg	< 0.2 mg/kg	6.2 mg/kg	ED50 (E. cloacae 214): < 10 mg/kg; ED50 (S. schottmuelleri): < 0.05 mg/kg; ED50 (C. freundii 8ASM): 0.22 mg/kg; ED50 (P. vulgaris 100): 67 mg/kg; ED50 (P. mirabilis 190): 140 mg/kg
CC1(C)S[C@@H]2[C@H](N=CN3CCC(CC4=NCCN4)CC3)C(=O)N2[C@H]1C(=O)O [M, [2S-(2alpha,5alpha,6beta)]-6-[[[4-[(4,5-dihydro-1H-imidazol-2-yl)methyl]-1-piperidinyl]methylene]amino]-3,3-dimethyl-7-oxo-4-thia-1-azabicyclo[3.2.0]heptane-2-carboxylic acid hydrochloride]	–	–	–	–	–	–	–	–	34 mg/kg	80 mg/kg	5 mg/kg	> 250 mg/kg	–	–	–	–	–	–	–	–	ED50 (E. coli 257; [4]): 1.5 mg/kg; ED50 (P. aeruginosa 6719; challenge 2249 LD50s, 3 treatments, Table 10): 34 mg/kg; ED50 (P. aeruginosa 8710; [5]): 54 mg/kg; ED50 (P. aeruginosa 8710; [6]): 59 mg/kg; ED50 (K. pneumoniae HE7; challenge 750 LD50s, Table 10): 71 mg/kg; ED50 (E. cloacae 6951; challenge 562 LD50s, Table 10): 15 mg/kg
CC1(C)S[C@@H]2[C@H](/N=C/N3CCCCCC3)C(=O)N2[C@H]1C(=O)O [Amdinocillin, amdinocillin, reference compound]	< 0.025 mg/kg	4.6 mg/kg	> 250 mg/kg	> 250 mg/kg	143 mg/kg	> 250 mg/kg	80 mg/kg	192 mg/kg	–	–	–	–	< 2 mg/kg	< 20 mg/kg	> 250 mg/kg	> 250 mg/kg	2.5 mg/kg	2.7 mg/kg	< 0.2 mg/kg	6.7 mg/kg	ED50 (E. coli 257; [4]): < 1 mg/kg; ED50 (S. pneumoniae SC; Table 9, read-out: PD50): < 2 mg/kg; ED50 (P. aeruginosa 8710; [5]): > 250 mg/kg; ED50 (P. aeruginosa 8710; [6]): > 250 mg/kg; ED50 (K. pneumoniae HE7; challenge 750 LD50s, Table 10): > 250 mg/kg; ED50 (E. cloacae 6951; challenge 562 LD50s, Table 10): 18 mg/kg; ED50 (E. cloacae 214): < 10 mg/kg; ED50 (S. schottmuelleri): 0.25 mg/kg; ED50 (C. freundii 8ASM): 0.76 mg/kg; ED50 (P. vulgaris 100): 45 mg/kg; ED50 (P. mirabilis 190): 117 mg/kg
